Reference: patent US12473262B2, “Aryl hydrocarbon receptor activators” (Oregon State University, priority 2019, dated 2025)

Target: aryl hydrocarbon receptor (AhR) (Mus musculus (Mouse), UniProt P30561)
Test: AhR ligand screening: AhRE-luciferase reporter in transfected Hepa1 cells
Assay type: cell-based
Settings: for Fold @ 1 nM: fold change of luciferase expression at 1 nM test compound relative to vehicle (0.1% DMSO); for Fold @ 100 nM: fold change of luciferase expression at 100 nM test compound relative to vehicle (0.1% DMSO); for Fold @ 10 uM: fold change of luciferase expression at 10 uM test compound relative to vehicle (0.1% DMSO); for Fold relative to benchmark @ 100 nM: luciferase expression at 100 nM test compound relative to 100 nM benchmark compound 11-cl-BBQ
Method in brief: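 Values are fold luciferase induction relative to vehicle (0.1% DMSO), read by luminometry of lysates from Hepa1 cells carrying an AhRE-driven luciferase reporter. Cells were seeded at 1×10^4 per well, grown overnight and treated with compound before lysis.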

Sequence of aryl hydrocarbon receptor (AhR) (P30561 10-805): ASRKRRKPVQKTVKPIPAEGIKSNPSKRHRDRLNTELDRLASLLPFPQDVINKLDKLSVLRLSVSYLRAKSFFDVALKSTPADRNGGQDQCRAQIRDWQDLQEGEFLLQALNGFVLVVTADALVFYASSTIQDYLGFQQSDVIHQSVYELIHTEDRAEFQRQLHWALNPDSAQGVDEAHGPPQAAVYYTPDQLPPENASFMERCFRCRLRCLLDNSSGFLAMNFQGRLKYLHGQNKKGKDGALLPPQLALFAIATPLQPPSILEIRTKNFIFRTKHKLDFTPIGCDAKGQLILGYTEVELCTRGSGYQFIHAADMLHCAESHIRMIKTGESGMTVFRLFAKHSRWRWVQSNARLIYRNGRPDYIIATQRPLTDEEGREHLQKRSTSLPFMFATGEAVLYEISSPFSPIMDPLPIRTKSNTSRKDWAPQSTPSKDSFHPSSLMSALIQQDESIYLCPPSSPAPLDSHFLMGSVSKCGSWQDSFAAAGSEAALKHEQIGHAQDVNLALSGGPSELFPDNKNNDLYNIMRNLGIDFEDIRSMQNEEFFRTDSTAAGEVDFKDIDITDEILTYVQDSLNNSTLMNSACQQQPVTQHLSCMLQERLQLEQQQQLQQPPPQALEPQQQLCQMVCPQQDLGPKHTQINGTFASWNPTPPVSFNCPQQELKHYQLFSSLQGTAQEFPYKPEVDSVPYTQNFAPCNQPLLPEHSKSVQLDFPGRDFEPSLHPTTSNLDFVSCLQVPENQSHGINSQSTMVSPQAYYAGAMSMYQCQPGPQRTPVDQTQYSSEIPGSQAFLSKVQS
Sequence of aryl hydrocarbon receptor (AhR) (P53762 whole entry partner): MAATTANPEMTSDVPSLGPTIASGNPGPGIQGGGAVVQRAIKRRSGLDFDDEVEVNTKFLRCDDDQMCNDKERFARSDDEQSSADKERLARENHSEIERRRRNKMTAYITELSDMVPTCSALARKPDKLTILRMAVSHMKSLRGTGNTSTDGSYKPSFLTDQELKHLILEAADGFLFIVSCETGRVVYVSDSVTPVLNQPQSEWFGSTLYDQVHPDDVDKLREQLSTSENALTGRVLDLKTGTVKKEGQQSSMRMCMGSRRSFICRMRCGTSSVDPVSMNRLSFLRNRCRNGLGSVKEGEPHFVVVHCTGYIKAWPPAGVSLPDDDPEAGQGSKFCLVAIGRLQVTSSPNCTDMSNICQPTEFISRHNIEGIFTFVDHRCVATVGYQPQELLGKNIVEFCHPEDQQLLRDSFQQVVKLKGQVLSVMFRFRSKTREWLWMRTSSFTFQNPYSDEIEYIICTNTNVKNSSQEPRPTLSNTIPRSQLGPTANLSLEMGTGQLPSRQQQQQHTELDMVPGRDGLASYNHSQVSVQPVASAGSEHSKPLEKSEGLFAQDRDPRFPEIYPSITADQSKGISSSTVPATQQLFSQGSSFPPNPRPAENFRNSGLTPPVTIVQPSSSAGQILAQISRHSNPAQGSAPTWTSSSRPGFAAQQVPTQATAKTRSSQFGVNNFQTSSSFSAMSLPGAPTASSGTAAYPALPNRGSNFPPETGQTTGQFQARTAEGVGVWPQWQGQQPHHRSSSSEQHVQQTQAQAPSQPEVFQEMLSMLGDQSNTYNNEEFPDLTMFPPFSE

Fold @ 1 nM [fold] | Fold @ 100 nM [fold] | Fold @ 10 uM [fold] | Fold relative to benchmark @ 100 nM [fold] | SMILES
1 | 19 | 35 | 0.48 | Cc1ccc(S(=O)(=O)n2c(-c3cccc4ccccc34)nc3ccc(Cl)cc32)cc1 [Compound 528, 6-chloro-2-(naphthalen-1-yl)-1-tosyl-1H-benzo[d]imidazole]
1 | 1 | 8 | 0.04 | O=C(c1ccccc1)n1c(-c2cccc3c2CCCC3)nc2ccc(Cl)cc21 [Compound 778]
1 | 1 | 1 | 0.03 | O=C(c1ccc2c(c1)nc(-c1cccc3ccccc13)n2S(=O)(=O)c1cccc(F)c1)N1CCOCC1 [Compound 1356]
1 | 1 | 15 | 0.07 | O=C(c1ccc(F)c(F)c1)n1c(-c2ccc(F)c(Cl)c2)nc2ccc(Cl)cc21 [Compound 581]
1 | 1 | 3.5 | 0.03 | COc1ccc(-c2nc3cc(Cl)ccc3n2C(=O)c2ccccc2)cc1 [Compound 496]
1 | 9 | 74 | 0.31 | O=C(c1ccc(F)c(F)c1)n1c(-c2ccc(Cl)c3ccccc23)nc2ccc(Cl)cc21 [Compound 870]
1 | 3 | 42 | 0.06 | Clc1ccc2nc(-c3cccc4ccccc34)n(Cc3ccncc3)c2c1 [Compound 877]
1 | 3 | 31 | 0.2 | O=C(c1ccccc1)n1c(-c2ccc3ccccc3c2)nc2cc(F)ccc21 [Compound 584]
1 | 3 | 14 | 0.2 | O=C(c1ccc(F)c(F)c1)n1c(-c2ccc(F)c(Cl)c2)nc2cc(Cl)ccc21 [Compound 580]
1 | 1 | 5 | 0.03 | O=C(c1ccc2nc(-c3cccc4ccccc34)n(S(=O)(=O)c3ccc4ccccc4c3)c2c1)N1CCCCC1 [Compound 1341]
1 | 1 | 26 | 0.04 | Cc1cccc(-c2nc3cc(Cl)ccc3n2C(=O)c2ccc(F)c(F)c2)c1Cl [Compound 791]
1 | 2 | 24 | 0.22 | COc1ccc(C(=O)n2c(-c3cc4ccccc4s3)nc3ccc(F)cc32)cc1 [Compound 635]
2.7 | 10 | 28 | 0.71 | c1ccc2c(c1)Cn1c3ccccc3c3ccnc-2c31 [Compound 526]
1 | 25 | 40 | 1 | O=C(C1CC1)n1c(-c2cccc3ccccc23)nc2cc(Cl)ccc21 [Compound 773]
1 | 2 | 6 | 0.08 | O=C(c1ccccc1)n1c(-c2cccc3c2CCCC3)nc2cc(Cl)ccc21 [Compound 777]
1 | 2 | 34 | 0.07 | O=S(=O)(C1CC1)n1c(-c2cccc3ccccc23)nc2ccc(Cl)cc21 [Compound 784]
1 | 2 | 18 | 0.04 | O=C(c1ccc(OC(F)(F)F)cc1)c1c[nH]c2ccc(Cl)cc12 [Compound 881]

Fold @ 1 nM [fold] | Fold @ 100 nM [fold] | Fold @ 10 uM [fold] | Fold relative to benchmark @ 100 nM [fold] | SMILES
1 | 13 | 28 | 0.5 | CN(C)c1ccc(C(=O)n2c(-c3cccc4ccccc34)nc3cc(Cl)ccc32)cc1 [Compound 685]
1 | 1 | 3 | 0.03 | O=C(c1ccc2nc(-c3cccc4ccccc34)n(S(=O)(=O)c3ccc(Cl)cc3)c2c1)N1CCCCC1 [Compound 1367]
1 | 1 | 5 | 0.03 | O=C1c2ccccc2-c2nc3cc(Cl)ccc3n21 [Compound 489, 5-chloro-1,8-diazatetracyclo-[7.7.0.0^2,70.^10,15]hexadeca-2,4,6,8,10,12,14-heptaen-16-one]
1 | 2 | 32 | 0.07 | Clc1ccc2c(c1)nc(-c1cccc3ccccc13)n2Cc1ccnc2ccccc12 [Compound 867]
1 | 3 | 45 | 0.2 | COc1ccc(C(=O)n2c(-c3cc4ccccc4s3)nc3cc(Cl)ccc32)cc1 [Compound 590]
1 | 1 | 10 | 0.02 | O=C(c1c[nH]c2ccc(Cl)cc12)C1CCCCC1 [Compound 895]
1 | 23 | 22 | 0.88 | Cc1ccc(C(=O)n2c(-c3cccc4ccccc34)nc3cc(Cl)ccc32)cc1 [Compound 697]
1 | 1.5 | 3.5 | 0.05 | COc1ccc(-c2nc3ccc(Cl)cc3n2C(=O)c2ccccc2)cc1 [Compound 497]
1 | 18 | 32 | 0.69 | COc1ccc(C(=O)n2c(-c3cccc4ccccc34)nc3cc(Cl)ccc32)cc1OC [Compound 682]
1 | 1 | 4 | 0.03 | COC(=O)c1ccc2c(c1)nc(-c1cccc3ccccc13)n2Cc1ccc(Cl)cc1 [Compound 1406]
1 | 1 | 2 | 0.02 | Cc1ccc(C(=O)c2c[nH]c3ccc(Cl)cc23)cc1 [Compound 882]
1 | 1 | 12 | 0.02 | Fc1cccc(F)c1Cn1c(-c2cccc3ccccc23)nc2cc(Cl)ccc21 [Compound 871]
1 | 1 | 29 | 0.03 | COc1ccc(Cn2c(-c3cccc4ccccc34)nc3cc(Cl)ccc32)cc1 [Compound 852]
1 | 38 | 46 | 1.31 | O=C(c1cnc2ccccc2c1)n1c(-c2cccc3ccccc23)nc2ccc(Cl)cc21 [Compound 856]
1 | 2 | 22 | 0.22 | COc1ccc(C(=O)n2c(-c3cc4ccccc4s3)nc3cc(F)ccc32)cc1 [Compound 634]
1 | 2 | 18 | 0.07 | COC(=O)c1ccc2[nH]c(-c3cccc4ccccc34)nc2c1 [Compound 1360]
1 | 1 | 3 | 0.03 | COc1ccccc1S(=O)(=O)n1c(-c2cccc3ccccc23)nc2cc(C(=O)N3CCCCC3)ccc21 [Compound 1390]

SMILES | Fold @ 1 nM [fold] | Fold @ 100 nM [fold] | Fold @ 10 uM [fold] | Fold relative to benchmark @ 100 nM [fold]
O=C(c1ccccc1)n1c(-c2cccc3ccccc23)nc2cc(F)ccc21 [Compound 583] | 1 | 5 | 7 | 0.33
O=C(c1cccc2ccccc12)c1c[nH]c2ccc(Cl)cc12 [Compound 364, (5-chloro-1H-indol-3-yl)(naphthalen-1-yl)methanone] | 1 | 2 | 11 | 0.05
O=C(c1cc2cc(Cl)ccc2o1)c1cccc2ccccc12 [Compound 406, (5-chlorobenzofuran-2-yl)(naphthalen-1-yl)methanone] | 1 | 1 | 7.5 | 0.03
O=C(c1cccc2ccccc12)n1c(-c2ccccc2)nc2cc(Cl)ccc21 [Compound 490, (5-chloro-2-phenyl-1H-benzo[d]imidazol-1-yl)(naphthalen-1-yl)methanone] | 1 | 1 | 17 | 0.03
O=c1c2cccc3cccc(c32)c2nc3ccccc3n12 [Compound 523] | 1.8 | 11.5 | 12 | 0.82
